In patent publication US20020035061A1, “COMPOSITIONS AND METHODS FOR TREATING INFECTIONS USING CATIONIC PEPTIDES ALONE OR IN COMBINATION WITH ANTIBIOTICS” (priority 1996, published 2002):
≈ marks a conversion by molar mass, not a printed value. Where “and” joins values, the source holds several entries; their conditions need not be identical. Equal entries are not always repeated. Where two headings read alike, the source gives them in different places.

What was measured:
Assay in all cases: microbe, parasite or virus in culture
Type in all cases: cell-based
bacterial isolates = tested on: bacterial isolates
[1] = tested on: inherently resistant microorganisms
[2] = tested on: microorganisms with acquired resistance; conditions: for MIC comb. (antibiotic agent): with MBI 29
[3] = Acinetobacter baumannii, read-out: Tobramycin MIC Alone, A. baumannii ABI001
[4] = Acinetobacter baumannii, read-out: Tobramycin MIC Alone, A. baumannii ABI002
[5] = Pseudomonas aeruginosa, read-out: Tobramycin MIC Alone, P. aeruginosa PA008
[6] = Pseudomonas aeruginosa, read-out: Tobramycin MIC Alone, P. aeruginosa PA022
[7] = Pseudomonas aeruginosa, read-out: Tobramycin MIC Alone, P. aeruginosa PA025
[8] = Pseudomonas aeruginosa, read-out: Tobramycin MIC Alone, P. aeruginosa PA026
[9] = Pseudomonas aeruginosa, read-out: Tobramycin MIC Alone, P. aeruginosa PA030
[10] = Pseudomonas aeruginosa, read-out: Tobramycin MIC Alone, P. aeruginosa PA032
[11] = Staphylococcus epidermidis, read-out: Tobramycin MIC Alone, S. epidermidis SE068
[12] = Staphylococcus epidermidis, read-out: Tobramycin MIC Alone, S. epidermidis SE072
[13] = Staphylococcus epidermidis, read-out: Tobramycin MIC Alone, S. epidermidis SE073
[14] = Staphylococcus epidermidis, read-out: Tobramycin MIC Alone, S. epidermidis SE080
[15] = Stenotrophomonas maltophilia, read-out: Tobramycin MIC Alone, S. maltophilia SMA029
[16] = Stenotrophomonas maltophilia, read-out: Tobramycin MIC Alone, S. maltophilia SMA030
[17] = Stenotrophomonas maltophilia, read-out: Tobramycin MIC Alone, S. maltophilia SMA031
[18] = Stenotrophomonas maltophilia, read-out: Tobramycin MIC Alone, S. maltophilia SMA032

## NC[C@H]1O[C@H](O[C@H]2[C@H](O)[C@@H](O[C@H]3O[C@H](CO)[C@@H](O)[C@H](N)[C@H]3O)[C@H](N)C[C@@H]2N)[C@H](N)C[C@@H]1O [Tobramycin]
Bacterial isolates; A. baumannii ABI002
  Tobramycin MIC Alone: 4 µg/mL
Bacterial isolates; [3]
  MIC: 16 µg/mL (≈ 34.2 µM)
Bacterial isolates; [4]
  MIC: 8 µg/mL (≈ 17.1 µM)
Bacterial isolates; Burkholderia cepacia, read-out: Tobramycin MIC Alone, B. cepacia BC001
  MIC: 128 µg/mL (≈ 274 µM)
Bacterial isolates; Burkholderia cepacia, read-out: Tobramycin MIC Alone, B. cepacia BC002
  MIC: > 128 µg/mL
Bacterial isolates; Escherichia coli, read-out: Tobramycin MIC Alone, E. coli ECO004
  MIC: 2 µg/mL (≈ 4.28 µM)
Bacterial isolates; Escherichia coli, read-out: Tobramycin MIC Alone, E. coli ECO006
  MIC: 8 µg/mL (≈ 17.1 µM)
Bacterial isolates; Klebsiella pneumoniae, read-out: Tobramycin MIC Alone, K. pneumoniae KP008
  MIC: 0.5 µg/mL (≈ 1.07 µM)
Bacterial isolates; [5]
  MIC: 32 µg/mL (≈ 68.4 µM)
Bacterial isolates; [6]
  MIC: 8 µg/mL (≈ 17.1 µM)
Bacterial isolates; [7]
  MIC: 32 µg/mL (≈ 68.4 µM)
Bacterial isolates; [8]
  MIC: 8 µg/mL (≈ 17.1 µM)
Bacterial isolates; Pseudomonas aeruginosa, read-out: Tobramycin MIC Alone, P. aeruginosa PA028
  MIC: 32 µg/mL (≈ 68.4 µM)
Bacterial isolates; Pseudomonas aeruginosa, read-out: Tobramycin MIC Alone, P. aeruginosa PA029
  MIC: 32 µg/mL (≈ 68.4 µM)
Bacterial isolates; [9]
  MIC: 16 µg/mL (≈ 34.2 µM)
Bacterial isolates; [10]
  MIC: 16 µg/mL (≈ 34.2 µM)
Bacterial isolates; S. haemolyticus SHA005
  Tobramycin MIC Alone: 4 µg/mL
Bacterial isolates; S. maltophilia SMA031
  Tobramycin MIC Alone: >128 µg/mL
Bacterial isolates; Staphylococcus aureus, MRSA, read-out: Tobramycin MIC Alone, S. aureus SA014 (also SA014 MRSA)
  MIC: > 128 µg/mL
Bacterial isolates; Staphylococcus aureus, MRSA, read-out: Tobramycin MIC Alone, S. aureus SA014 MRSA
  MIC: > 128 µg/mL
Bacterial isolates; Staphylococcus aureus, MRSA, read-out: Tobramycin MIC Alone, S. aureus SA018 MRSA
  MIC: 64 µg/mL (≈ 137 µM)
Bacterial isolates; Staphylococcus aureus, MRSA, read-out: Tobramycin MIC Alone, S. aureus SA025 (also SA025 MRSA)
  MIC: > 128 µg/mL
Bacterial isolates; Staphylococcus epidermidis, read-out: Tobramycin MIC Alone, S. epidermidis SE067
  MIC: > 128 µg/mL
Bacterial isolates; [11]
  MIC: > 128 µg/mL
Bacterial isolates; [12]
  MIC: > 128 µg/mL
Bacterial isolates; [13]
  MIC: > 128 µg/mL
Bacterial isolates; [14]
  MIC: 32 µg/mL (≈ 68.4 µM)
Bacterial isolates; Staphylococcus haemolyticus, read-out: Tobramycin MIC Alone, S. haemolyticus SHA001
  MIC: 4 µg/mL (≈ 8.56 µM)
Bacterial isolates; Staphylococcus haemolyticus, read-out: Tobramycin MIC Alone, S. haemolyticus SHA005
  MIC: 8 µg/mL (≈ 17.1 µM)
Bacterial isolates; Stenotrophomonas maltophilia, read-out: Tobramycin MIC Alone, S. maltophilia (strain code stands in r800, not shown)
  MIC: 128 µg/mL (≈ 274 µM)
Bacterial isolates; Stenotrophomonas maltophilia, read-out: Tobramycin MIC Alone, S. maltophilia SMA027
  MIC: 32 µg/mL (≈ 68.4 µM)
Bacterial isolates; [15]
  MIC: 128 µg/mL (≈ 274 µM)
Bacterial isolates; [16]
  MIC: 128 µg/mL (≈ 274 µM)
Bacterial isolates; [17]
  MIC: 128 µg/mL (≈ 274 µM)
Bacterial isolates; [18]
  MIC: 128 µg/mL (≈ 274 µM)
Bacterial isolates; Stenotrophomonas maltophilia, read-out: Tobramycin MIC Alone, S. maltophilia SMA035
  MIC: 32 µg/mL (≈ 68.4 µM)
[1]; Staphylococcus aureus, read-out: Tobramycin MIC + Peptide, S. aureus, peptide MBI 11A1CN
  MIC: 0.125 µg/mL
[1]; Staphylococcus aureus, read-out: Tobramycin MIC + Peptide, S. aureus, peptide MBI 11D18CN
  MIC: 4 µg/mL
[1]; Staphylococcus aureus, read-out: Tobramycin MIC + Peptide, S. aureus, peptide MBI 11F3CN
  MIC: 2 µg/mL
[1]; Staphylococcus aureus, read-out: Tobramycin MIC + Peptide, S. aureus, peptide MBI 11G13CN
  MIC: 0.125 µg/mL
[1]; Staphylococcus aureus, read-out: Tobramycin MIC + Peptide, S. aureus, peptide MBI 21A1
  MIC: 0.125 µg/mL
[1]; Staphylococcus aureus, read-out: Tobramycin MIC + Peptide, S. aureus, peptide MBI 22A1
  MIC: 4 µg/mL
[1]; Staphylococcus aureus, read-out: Tobramycin MIC Alone, S. aureus
  MIC: > 128 µg/mL
[1]; Staphylococcus haemolyticus, read-out: Tobramycin MIC + Peptide, S. haemolyticus, peptide MBI 11A1CN
  MIC: 4 µg/mL
[1]; Staphylococcus haemolyticus, read-out: Tobramycin MIC Alone, S. haemolyticus
  MIC: 8 µg/mL (≈ 17.1 µM)
[2]; A. calcoaceticus
  MIC comb. (antibiotic agent): 1 µg/mL (≈ 2.14 µM)
[2]; [3]
  MIC: 16 µg/mL (≈ 34.2 µM)
[2]; [4]
  MIC: 8 µg/mL (≈ 17.1 µM)
[2]; Acinetobacter calcoaceticus, read-out: MIC alone (antibiotic agent), A. calcoaceticus
  MIC: 8 µg/mL (≈ 17.1 µM)
[2]; Escherichia coli, read-out: Tobramycin MIC Alone, E. coli EC0006
  MIC: 8 µg/mL (≈ 17.1 µM)
[2]; P. aeruginosa PA032
  Tobramycin MIC Alone: 8 µg/mL
[2]; P. aeruginosa
  MIC comb. (antibiotic agent): 1 µg/mL (≈ 2.14 µM)
[2]; Pseudomonas aeruginosa, read-out: MIC alone (antibiotic agent), P. aeruginosa
  MIC: 64 µg/mL (≈ 137 µM)
[2]; [5]
  MIC: 32 µg/mL (≈ 68.4 µM)
[2]; [6]
  MIC: 8 µg/mL (≈ 17.1 µM)
[2]; [7]
  MIC: 32 µg/mL (≈ 68.4 µM)
[2]; [8]
  MIC: 8 µg/mL (≈ 17.1 µM)
[2]; [9]
  MIC: 16 µg/mL (≈ 34.2 µM)
[2]; Pseudomonas aeruginosa, read-out: Tobramycin MIC Alone, P. aeruginosa PA031
  MIC: 16 µg/mL (≈ 34.2 µM)
[2]; [10]
  MIC: 16 µg/mL (≈ 34.2 µM)
[2]; S. maltophilia SMA031
  Tobramycin MIC Alone: 128 µg/mL and >128 µg/mL
[2]; [11]
  MIC: > 128 µg/mL
[2]; Staphylococcus epidermidis, read-out: Tobramycin MIC Alone, S. epidermidis SE071
  MIC: > 128 µg/mL
[2]; [12]
  MIC: > 128 µg/mL
[2]; [13]
  MIC: > 128 µg/mL
[2]; [14]
  MIC: 16 µg/mL (≈ 34.2 µM)
[2]; [15]
  MIC: 128 µg/mL (≈ 274 µM)
[2]; [16]
  MIC: 128 µg/mL (≈ 274 µM)
[2]; [17]
  MIC: 64 µg/mL (≈ 137 µM)
[2]; [18]
  MIC: 128 µg/mL (≈ 274 µM)

## Gentamicin
Bacterial isolates; A. calcoaceticus AC001
  Gentamicin MIC Alone: 8 µg/mL
Bacterial isolates; E. faecalis EFS008
  Gentamicin MIC Alone: >128 µg/mL and 128 µg/mL
Bacterial isolates; E. faecium EFM004
  Gentamicin MIC Alone: >128 µg/mL
Bacterial isolates; P. aeruginosa PA022
  Gentamicin MIC Alone: 32 µg/mL and 16 µg/mL
Bacterial isolates; P. aeruginosa PA023
  Gentamicin MIC Alone: 8 µg/mL
Bacterial isolates; P. aeruginosa PA041
  Gentamicin MIC Alone: 8 µg/mL and 16 µg/mL
Bacterial isolates; S. aureus SA014 MRSA
  Gentamicin MIC Alone: 32 µg/mL
Bacterial isolates; S. epidermidis SE071
  Gentamicin MIC Alone: 16 µg/mL
Bacterial isolates; S. epidermidis SE074
  Gentamicin MIC Alone: 128 µg/mL
Bacterial isolates; S. maltophilia (strain line r400 not shown)
  Gentamicin MIC Alone: 128 µg/mL
Bacterial isolates; S. maltophilia SMA016
  Gentamicin MIC Alone: >128 µg/mL and 128 µg/mL
Bacterial isolates; S. maltophilia SMA017
  Gentamicin MIC Alone: 128 µg/mL
[1]; S. aureus MRSA
  Gentamicin MIC Alone: 32 µg/mL
[1]; S. aureus MRSA, peptide MBI 11B16CN
  Gentamicin MIC + Peptide: 1 µg/mL
[2]; A. baumannii ABI002
  Gentamicin MIC Alone: 16 µg/mL and 32 µg/mL
[2]; A. calcoaceticus AC001
  Gentamicin MIC Alone: 8 µg/mL
[2]; P. aeruginosa PA022
  Gentamicin MIC Alone: 32 µg/mL
[2]; P. aeruginosa PA023
  Gentamicin MIC Alone: 8 µg/mL and 16 µg/mL
[2]; P. aeruginosa PA041
  Gentamicin MIC Alone: 8 µg/mL and 16 µg/mL
